Source: PubChem BioAssay (NCI)
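Test compounds were applied to cells in 96-well plates for 48 hours at 5 doses. TGI denotes the concentration required for complete inhibition of growth.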

Experiments:
Experiment in all cases: NCI tumour cell line growth inhibition, 48 h
[1] = system: OVCAR-4 ovarian
[2] = system: CCRF-CEM leukemia
[3] = system: HT29 colon
[4] = system: M19-MEL melanoma
[5] = system: RPMI-8226 leukemia
[6] = system: A498 renal
[7] = system: HCT-15 colon
[8] = system: LXFL 529 NSCLC
[9] = system: SNB-75 CNS
[10] = system: HCC-2998 colon
[11] = system: HCT-116 colon
[12] = system: LOX IMVI melanoma
[13] = system: KM12 colon
[14] = system: A549 NSCLC
[15] = system: KM20L2 colon
[16] = system: SK-MEL-28 melanoma
[17] = system: 786-0 renal
[18] = system: SK-OV-3 ovarian
[19] = system: SF-268 CNS
[20] = system: SNB-19 CNS
[21] = system: SF-295 CNS
[22] = system: TK-10 renal
[23] = system: HOP-62 NSCLC
[24] = system: CAKI-1 renal
[25] = system: COLO 205 colon
[26] = system: K-562 leukemia
[27] = system: HOP-92 NSCLC
[28] = system: SK-MEL-5 melanoma
[29] = system: U251 CNS
[30] = system: SN12C renal
[31] = system: UACC-62 melanoma
[32] = system: OVCAR-8 ovarian
[33] = system: DMS 114 small cell lung
[34] = system: NCI-H460 lung
[35] = system: EKVX NSCLC
[36] = system: NCI-H23 lung
[37] = system: IGROV1 ovarian
[38] = system: SF-539 CNS
[39] = system: RXF 393 renal
[40] = system: M14 melanoma
[41] = system: HL-60(TB) leukemia
[42] = system: SK-MEL-2 melanoma
[43] = system: SW-620 colon
[44] = system: MOLT-4 leukemia
[45] = system: DLD-1 colon
[46] = system: NCI-H522 lung
[47] = system: HOP-18 NSCLC
[48] = system: OVCAR-5 ovarian
[49] = system: OVCAR-3 ovarian
[50] = system: MALME-3M melanoma
[51] = system: ACHN renal
[52] = system: DMS 273 small cell lung
[53] = system: RXF-631 renal
[54] = system: NCI-H226 lung
[55] = system: UACC-257 melanoma
[56] = system: UO-31 renal
[57] = system: SNB-78 CNS

With `Cc1cc(=O)oc2cc(OCc3nc4ccccc4c(=O)n3-c3ccccc3)ccc12` the TGI [1] was > 100 µM, the TGI [2] was > 100 µM and the TGI [3] was > 100 µM. For the same compound, the TGI [4] was > 100 µM, the TGI [5] was > 100 µM and the TGI [6] was > 100 µM. The TGI [7] was > 100 µM, the TGI [8] was > 100 µM and the TGI [9] was 46.7 µM. For the same compound, the TGI [10] was > 100 µM, the TGI [11] was > 100 µM and the TGI [12] was > 100 µM. The TGI [13] was > 100 µM, the TGI [14] was > 100 µM and the TGI [15] was > 100 µM. The TGI [16] was > 100 µM, the TGI [17] was > 100 µM and the TGI [18] was > 100 µM. For the same compound, the TGI [19] was > 100 µM, the TGI [20] was 97.7 µM and the TGI [21] was > 100 µM. The TGI [22] was > 100 µM, the TGI [23] was > 100 µM and the TGI [24] was > 100 µM. For the same compound, the TGI [25] was > 100 µM, the TGI [26] was > 100 µM and the TGI [27] was 96.4 µM. For the same compound, the TGI [28] was > 100 µM, the TGI [29] was > 100 µM and the TGI [30] was > 100 µM. For the same compound, the TGI [31] was > 100 µM, the TGI [32] was > 100 µM and the TGI [33] was > 100 µM. For the same compound, the TGI [34] was > 100 µM, the TGI [35] was > 100 µM and the TGI [36] was > 100 µM. For the same compound, the TGI [37] was > 100 µM, the TGI [38] was > 100 µM and the TGI [39] was > 100 µM. For the same compound, the TGI [40] was > 100 µM, the TGI [41] was > 100 µM and the TGI [42] was > 100 µM. For the same compound, the TGI [43] was > 100 µM, the TGI [44] was > 100 µM and the TGI [45] was > 100 µM. For the same compound, the TGI [46] was > 100 µM, the TGI [47] was > 100 µM and the TGI [48] was > 100 µM. The TGI [49] was > 100 µM, the TGI [50] was > 100 µM and the TGI [51] was > 100 µM. The TGI [52] was > 100 µM, the TGI [53] was > 100 µM and the TGI [54] was > 100 µM.
`CCCCCCCCOCC(CO)OCCCCCCCC` (stereo not drawn) gave a TGI [1] of 34.7 µM, a TGI [2] of 42.5 µM and a TGI [3] of 36.6 µM. For the same compound, the TGI [4] was 36.3 µM, the TGI [5] was 42.5 µM and the TGI [6] was 42 µM. It also gave a TGI [7] of 29.7 µM, a TGI [8] of 33.1 µM and a TGI [10] of 33.6 µM. It also gave a TGI [11] of 33.6 µM, a TGI [12] of 32 µM and a TGI [14] of 37.2 µM. For the same compound, the TGI [16] was 34.2 µM, the TGI [17] was 33.9 µM and the TGI [18] was > 100 µM. It also gave a TGI [19] of 29.7 µM, a TGI [20] of 41.8 µM and a TGI [21] of 30.5 µM. The TGI [22] was 34.4 µM, the TGI [23] was 37.2 µM and the TGI [55] was 37.1 µM. For the same compound, the TGI [24] was > 100 µM, the TGI [25] was 39.7 µM and the TGI [26] was 32.4 µM. It also gave a TGI [27] of 49.2 µM, a TGI [28] of 33.8 µM and a TGI [29] of 32.3 µM. It also gave a TGI [30] of 31.8 µM, a TGI [31] of 43.3 µM and a TGI [32] of 37.7 µM. It also gave a TGI [33] of 42.3 µM, a TGI [34] of 30 µM and a TGI [56] of 35.9 µM. It also gave a TGI [36] of 33 µM, a TGI [37] of 40.8 µM and a TGI [40] of 67.1 µM. The TGI [41] was 34.1 µM, the TGI [43] was 37.4 µM and the TGI [44] was 37.9 µM. For the same compound, the TGI [45] was 33.1 µM, the TGI [47] was 24.5 µM and the TGI [48] was 32.7 µM. The TGI [49] was 34.2 µM, the TGI [50] was 34.9 µM and the TGI [51] was 31.8 µM. The TGI [52] was 33.4 µM, the TGI [53] was 32 µM and the TGI [54] was 44.9 µM.
In the case of `COc1c(C)c(O)c2c(=O)cc(-c3ccccc3)oc2c1C`, the TGI [1] is reported as > 100 µM, the TGI [2] is reported as > 100 µM and the TGI [3] is reported as > 100 µM. For the same compound, the TGI [4] was > 100 µM, the TGI [6] was > 100 µM and the TGI [7] was > 100 µM. For the same compound, the TGI [8] was > 100 µM, the TGI [9] was > 100 µM and the TGI [10] was > 100 µM. For the same compound, the TGI [11] was > 100 µM, the TGI [12] was > 100 µM and the TGI [13] was > 100 µM. For the same compound, the TGI [14] was > 100 µM, the TGI [15] was > 100 µM and the TGI [16] was > 100 µM. The TGI [17] was > 100 µM, the TGI [18] was > 100 µM and the TGI [19] was > 100 µM. The TGI [21] was > 100 µM, the TGI [22] was > 100 µM and the TGI [23] was > 100 µM. The TGI [55] was > 100 µM, the TGI [24] was > 100 µM and the TGI [57] was > 100 µM. The TGI [26] was > 100 µM, the TGI [27] was > 100 µM and the TGI [28] was > 100 µM. For the same compound, the TGI [29] was > 100 µM, the TGI [30] was > 100 µM and the TGI [31] was > 100 µM. For the same compound, the TGI [32] was > 100 µM, the TGI [33] was > 100 µM and the TGI [34] was > 100 µM. The TGI [56] was > 100 µM, the TGI [35] was > 100 µM and the TGI [36] was > 100 µM. For the same compound, the TGI [37] was > 100 µM, the TGI [38] was > 100 µM and the TGI [40] was > 100 µM. For the same compound, the TGI [42] was > 100 µM, the TGI [43] was > 100 µM and the TGI [44] was > 100 µM. For the same compound, the TGI [45] was > 100 µM, the TGI [46] was > 100 µM and the TGI [47] was > 100 µM. The TGI [48] was > 100 µM, the TGI [49] was > 100 µM and the TGI [50] was > 100 µM. The TGI [51] was > 100 µM, the TGI [53] was > 100 µM and the TGI [54] was > 100 µM.
